Laboratory results from paper PMC9820411, “Late-Stage Functionalization through Click Chemistry Provides GLUT5-Targeting Glycoconjugate as a Potential PET Imaging Probe” (International Journal of Molecular Sciences, 2022).

Biological target: T1, GLUT5 (Homo sapiens, UniProt P22732)
T1 construct: gene SLC2A5
T1 sequence (P22732 1-501): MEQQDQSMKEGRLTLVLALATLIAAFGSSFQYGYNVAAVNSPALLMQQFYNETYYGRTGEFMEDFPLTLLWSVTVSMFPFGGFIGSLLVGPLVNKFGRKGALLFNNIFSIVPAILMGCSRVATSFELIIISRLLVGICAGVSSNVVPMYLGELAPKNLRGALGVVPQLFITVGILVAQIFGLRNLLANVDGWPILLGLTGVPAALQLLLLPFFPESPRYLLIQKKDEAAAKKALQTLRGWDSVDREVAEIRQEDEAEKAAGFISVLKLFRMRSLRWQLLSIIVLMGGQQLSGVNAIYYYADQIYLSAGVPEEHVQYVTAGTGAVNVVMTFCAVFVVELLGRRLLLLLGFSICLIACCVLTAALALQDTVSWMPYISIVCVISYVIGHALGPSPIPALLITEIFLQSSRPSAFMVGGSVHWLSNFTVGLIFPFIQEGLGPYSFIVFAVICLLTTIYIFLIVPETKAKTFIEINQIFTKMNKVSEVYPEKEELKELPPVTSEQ
Experiment: competition with ManCou-F uptake in MCF7 cells
Type: cell-based

IC50: ~28 mM
Compound: OC[C@H]1OC(O)(CO)[C@@H](O)[C@@H]1O (stereo partly shown) [fructose]
